According to PMC9327782, “Benzoxazole derivatives as new VEGFR-2 inhibitors and apoptosis inducers: design, synthesis, in silico studies, and antiproliferative evaluation” (Journal of Enzyme Inhibition and Medicinal Chemistry, 2022):
Read-outs that look alike come from different tables or passages of the source.

Experiments:
Assay type in all cases: cell-based, human
[1] = system: MCF-7 cell line; test: In vitro anti-proliferative MTT assay, MCF-7; settings: Homo sapiens
From the text: The cytotoxicity results were obtained as median growth inhibitory concentration (IC50).
(§1) MTT assay protocol. This method was applied in accordance with the comprehensive description in Supplementary data. […]
(§2) 5 Raw data of cytotoxity and VEGFR -2 assay […]
(§3) Experimental of biological testing
(§4) 1. In vitro anti-proliferative activity
(§5) MTT assay protocol was applied to assess the anti-proliferative activity of the synthesized compounds. Two human cancer cell lines (MCF-7 and HepG-2) and one normal cell line (WI-38) were used in this test. At first, the cell lines were cultured in RPMI -1640 medium with 10% fetal bovine serum. Antibiotics (100 units/ml penicillin and100 µg/ml streptomycin ) were added at 37 °C in a 5% CO2 incubator. The cell lines were seeded in a 96-well plate at a density of 1.0 x 10^4 cells / well at 37 °C for 24 h under 5% CO2. After incubation, the cells were treated with different […]
(§6) concentration of the synthesized compounds and incubated for 24 h. After 24 h of drug treatment, 20 µl of MTT solution at 5mg/ml was added and incubated for 4 h. Dimethyl sulfoxide (DMSO) in volume of 100 µl was added into each well to dissolve the purple formazan formed. The colorimetric assay was measured and recorded at absorbance of 570 nm using a plate reader (EXL 800, USA). The relative cell viability in percentage was calculated as (A570 of treated samples/A570 of untreated sample) X 100. […]

[2] = system: WI-38 cell line; test: In vitro cytotoxicity against normal cell line (MTT); design: LogIC50 best-fit value, WI-38: unit not given here
From the text: […]. Such values were very high in comparison to the corresponding values on cancer cell lines, which reflect high safety profile of the tested candidates towards normal cell lines.
as §1, §2, §3, §4, §5, §6

[3] = system: HepG2 cells; test: Flow cytometry cell cycle analysis (PI staining); settings: HepG2, 10.50 µM, 24 h
Experimental: Compound 12I, achieved notable cytotoxic and VEGFR-2 inhibitory potencies was further studied mechanistically for cell cycle progression and induction of apoptosis in HepG2 cells. Cell cycle process was analysed after exposure of HepG2 cells to 12I with a concentration of 10.50 µM for 24 h.
This assay was applied using propidium iodide (PI) staining in accordance with the comprehensive description in Supplementary data[34]^,[35] […]
3. Flow cytometry analysis for cell cycle
To determine the role of the synthesized compounds in cell cycle distribution, cell cycle analysis was performed using propidium iodide (PI) staining and flow cytometry analysis for compound
12l. Flow Cytometry Kit for Cell Cycle Analysis (ab139418_Propidium Iodide Flow Cytometry Kit/BD) was used in this test. HepG2 cells were treated with compound 12l (10.50 µM) for 24 h.
Then, the cells were fixed in 70% ethanol at 4 °C for 12 h. After that, the cells were washed with cold PBS, incubated with 100 μl RNase A at 37 °C for 30 min, and stained with 400 μl PI in the dark at room temperature for further 30 min. The stained cells were measured using Epics XL-MCL™ Flow Cytometer (Beckman Coulter), and the data were analyzed using Flowing software (version 2.5.1, Turku Centre for Biotechnology, Turku, Finland) .

[4] = system: HepG2 cells; test: Flow cytometry apoptosis analysis (Annexin V/PI)
Experimental: In details, 32.45 and 2.86% for early and late apoptotic phases, respectively compared to control, (6.56%,5.34%,1.22%, respectively) (Figure 5 and Table 5).
Apoptotic effect was applied in accordance with the comprehensive description in Supplementary data[36]^,[37]
4. Flow cytometry analysis for apoptosis
Flow cytometry cell apoptosis analysis was used to investigate the apoptotic effect of the synthesized compounds. HepG2 cells were treated with compound 12l (10.50 µM) for 24 h, collected by trypsin, centrifuged, washed two successive times with PBS, suspended in 500 μl binding buffer, and double stained with 5 μl Annexin V-FITC and 5 μl PI in the dark at room temperature for 15 min. The stained cells were measured using Epics XL-MCL™ Flow Cytometer and analyzed using Flowing software. […]

[5] = supplement raw data, dose-response curve fit
[6] = HepG2, 24 h, mean ± SEM of two experiments

SMILES: Cc1ccc2oc(SCC(=O)Nc3ccc(C(=O)Nc4cccc(Cl)c4)cc3)nc2c1 [Compound 12l, N-(3-Chlorophenyl)-4–(2-((5-methylbenzo[d]oxazol-2-yl)thio)acetamido)benzamide]
- IC50 ([1]; MCF7, 24 h, MTT, 24 h treatment, mean of three experiments, read-out: In vitro IC50 MCF-7): 15.2 ± 1.1 µM
- IC50 ([1]; MCF7, supplement raw data, dose-response curve fit, read-out: LogIC50 best-fit value, MCF-7 (converted)): 15.2 µM
- IC50 ([2]; WI-38, normal human lung cell line, MTT): 37.8 µM
- HillSlope best-fit value, WI-38 [2, 5]: -0.4502
- LogIC50 best-fit value, WI-38 [2, 5]: 1.577
- Cell cycle distribution %S [3]: 38.68%
- Cell cycle distribution % G2/M ([3]; listed as 12I): 32.10%
- Cell cycle distribution %Sub-G1 (Pre-G1) ([3]; listed as 12I): 0.79%
- Cell cycle distribution % G2/M ([3]; listed as 12 l): 32.10 ± 181 %
- Cell cycle distribution %G1 ([3]; listed as 12 l): 28.43 ± 0.37 %
- Cell cycle distribution %S ([3]; listed as 12 l): 38.68 ± 1.81 %
- Cell cycle distribution %Sub-G1 (Pre-G1) ([3]; listed as 12 l): 0.79 ± 0.25%
- Early apoptotic phase ([4]; HepG2, 10.50 µM, 24 h): 32.45%
- Late apoptotic phase ([4]; HepG2, 10.50 µM, 24 h): 2.86%
- Apoptosis Early (Right Bottom) [4, 6]: 32.45 ± 3.13
- Apoptosis Late (Right Top) [4, 6]: 2.86 ± 0.21
- Necrosis (Left Top) [4, 6]: 0.14 ± 0.06
- Viable (Left Bottom) ([4]; HepG2, 24 h, mean ± SEM of two experiments, in %): 64.55 ± 3.43
